From EP1832586A1, “Thiazole-piperidine derivatives in treatment of diseases of liver and the pancreas” (Oridis Biomed Forschungs- und Entwicklungs GmbH, priority 2006, dated 2007)

Tests used:
Type in all cases: cell-based
[1] = system: SK-Br-3; assay: CellTiter-Glo luminescent cell viability (proliferation) assay, SK-Br-3; conditions: Sk-Br-3 (human breast cancer) proliferation, 48 hours incubation, 10% FCS
Procedure: (§1) To practically assess the impact of the thiazole-piperidine derivatives, e.g. derivatives of piperidinyl-thiazole carboxylic acid and/or piperidinyl thiazole carboxamide, in the treatment and/or prevention of diseases according to the invention, the inhibition of cell proliferation is determined by using a luminescent cell viability assay (CellTiter-Glo®; Promega, Madison, USA). The assay is based on the relation that the ATP content is directly proportional to the number of cells present in the culture. The CellTiter-Glo® assay is performed to measure the proliferation rate of human hepatoma (HuH7, PLC/PRF/5, Hep3B, SK-Hep1), human hepatoblastoma (HepG2), human colon carcinoma (CX-2), human breast cancer (SK-Br-3), human ovarian carcinoma (HeLa) and human pancreatic carcinoma (DAN-G) cell lines. […] In particular, the compound according to formula (1) wherein R^1 is 4-isopropoxycarbonylphenyl, R^2 is 3-indolylmethyl, R^3 is hydrogen, R^4 is hydrogen, n is zero, A is a single bond, B is carbonyl, and wherein the residue R^1NR^3CO is connected to the carbon atom bound to nitrogen of the thiazole ring (compound no. XI in Table 1) inhibits proliferation of the human cell lines HepG2 and Hep3B with 10.8 and 3.5 µM, respectively.
(§2) To determine the inhibition of cell proliferation a luminescent cell viability assay (CellTiter-Glo®; Promega, Madison, USA) is implemented. The assay is based on the relation that the ATP content is directly proportional to the number of cells present in the culture (Technical Bulletin No. 228 "CellTiter-Glo® Luminescent Cell viability Assay", Revised 2/04. Promeg, Madison, USA). The CellTiter-Glo® assay is performed to measure the proliferation rate of human hepatoma (HuH7, PLC/PRF/5, Hep3B, SK-Hep1), human hepatoblastoma (HepG2), human colon carcinoma (CX-2), human breast cancer (SK-Br-3), human ovarian carcinoma (HeLa) and human pancreatic carcinoma (DAN-G) cell lines. 3000 viable cells (viability ≥ 90%) are seeded in opaque-walled 96-well plates and incubated for 24 hours in DMEM, supplemented with 2 mM glutamin. Cell proliferation is stimulated by addition of FCS to a final concentration of 10% (v/v). Simultaneously the compounds (see Table 1 and 2) are added in a concentration range of 0 to 20 µM. Triplicates are measured for each concentration. Cells and compounds (see Table 1 and 2) are incubated for a period of 48 hours in a volume of 140 µl cell culture medium (10% (v/v) FCS, 2 mM Glutamin, DMEM). The compounds according to the invention are dissolved in 60% to 100% (v/v) DMSO at a concentration of 2 mM. The final DMSO concentration under assay conditions never exceeds 1% (v/v). Throughout the assay cells are kept in a humidified incubator (95% rH) at 37°C and 5% CO2.
(§3) The final cell number is determined after 48 hour of incubation. Therefore 140 µl CellTiter-Glo®Reagent is added in each well. The contents are mixed on an orbital shaker for 2 minutes at room temperature. After subsequent incubation for additional 10 minutes at room temperature the luminescence signal is recorded within 30 min. EC50 values are calculated using the four-parametric Hill equation (Sigma Plot). Control values are: • 1) 10% (v/v) FCS, 2 mM glutamin, DMEM -> maximum cell number • 2) 2 mM glutamin, DMEM -> initial cell number

[2] = system: Hep3B; assay: CellTiter-Glo luminescent cell viability (proliferation) assay, Hep3B; conditions: Hep3B (human hepatoma), 48 hours incubation, 10% FCS; read-out: inhibits proliferation
Procedure: (§4) To practically assess the impact of the thiazole-piperidine derivatives, e.g. derivatives of piperidinyl-thiazole carboxylic acid and/or piperidinyl thiazole carboxamide, in the treatment and/or prevention of diseases according to the invention, the inhibition of cell proliferation is determined by using a luminescent cell viability assay (CellTiter-Glo®; Promega, Madison, USA). The assay is based on the relation that the ATP content is directly proportional to the number of cells present in the culture. The CellTiter-Glo® assay is performed to measure the proliferation rate of human hepatoma (HuH7, PLC/PRF/5, Hep3B, SK-Hep1), human hepatoblastoma (HepG2), human colon carcinoma (CX-2), human breast cancer (SK-Br-3), human ovarian carcinoma (HeLa) and human pancreatic carcinoma (DAN-G) cell lines. […]
(§5) To determine the inhibition of cell proliferation a luminescent cell viability assay (CellTiter-Glo®; Promega, Madison, USA) is implemented. […] Triplicates are measured for each concentration. […]
(§6) The final cell number is determined after 48 hour of incubation. […] After subsequent incubation for additional 10 minutes at room temperature the luminescence signal is recorded within 30 min. EC50 values are calculated using the four-parametric Hill equation (Sigma Plot). […]

[3] = system: HuH7; assay: CellTiter-Glo luminescent cell viability (proliferation) assay, HuH7; conditions: inhibition of HuH7 (human hepatoma) proliferation, 48 hours incubation, 10% FCS
Procedure: as §1, §2, §3

[4] = system: HeLa; assay: CellTiter-Glo luminescent cell viability (proliferation) assay, HeLa; conditions: Hela (human ovarian carcinoma [sic]) proliferation, 48 hours incubation, 10% FCS
Procedure: as §1, §2, §3

[5] = system: DAN-G; assay: CellTiter-Glo luminescent cell viability (proliferation) assay, DAN-G; conditions: DAN-G (human pancreatic carcinoma) proliferation, 48 hours incubation, 10% FCS
Procedure: as §1, §2, §3

[6] = system: CX-2; assay: CellTiter-Glo luminescent cell viability (proliferation) assay, CX-2; conditions: CX-2 (human colon carcinoma) proliferation, 48 hours incubation, 10% FCS
Procedure: as §1, §2, §3

[7] = system: HepG2; assay: CellTiter-Glo luminescent cell viability (proliferation) assay, HepG2; conditions: HepG2 (human hepatoblastoma), 48 hours incubation, 10% FCS; read-out: inhibits proliferation
Procedure: as §4, §5, §6

| SMILES | EC50 [1] | EC50 [2] | EC50 ([3]; Homo sapiens, Huh-7, 48 h) | EC50 [4] | EC50 [5] | EC50 [6] | EC50 [7] | EC50 ([3]; Huh-7) |
| --- | --- | --- | --- | --- | --- | --- | --- | --- |
| CC(C)OC(=O)c1ccc(NC(=O)c2csc(C3CCN(C(=O)CC4C=Nc5ccccc54)CC3)n2)cc1 (stereo not drawn) [XI, 2-[1-{indol-3-yl-methylcarboxyl}piperidine-4-yl]-thiazole-4-yl-caboxylic acid (4-isoproxycarboxy-phenyl) amide] | 10.2 µM | 3.5 µM | 0.36 µM | 26.3 µM | 7.63 µM | 22.3 µM | 10.8 µM | – |
| Cc1ccc(NC(=O)c2csc(C3CCN(C(=O)CC4C=Nc5ccccc54)CC3)n2)cc1F (stereo not drawn) [XV] | 10.8 µM | – | 1.64 µM | 17.2 µM | 3.81 µM | 10.9 µM | – | – |
| O=C(Nc1ccc(F)c(F)c1)c1csc(C2CCN(C(=O)CC3C=Nc4ccccc43)CC2)n1 (stereo not drawn) [XXIV] | 16.6 µM | – | 0.25 µM | 8.91 µM | 2.55 µM | 10.3 µM | – | – |
| Cc1ccc(S(=O)(=O)N2CCC(c3nc(C(=O)Nc4nnc(C(F)(F)F)s4)cs3)CC2)cc1Cl [XXVI] | 19.3 µM | – | 1.15 µM | 11.1 µM | 13.5 µM | 20.2 µM | – | – |
| O=C(Nc1cc(-c2cccs2)n[nH]1)c1csc(C2CCN(C(=O)N3CCN(c4ccccn4)CC3)CC2)n1 [XXXIII] | > 20 µM | – | 3.23 µM | 11.6 µM | 13.8 µM | > 20 µM | – | – |
| C=CCSc1ncccc1C(=O)N1CCC(c2nc(C(=O)Nc3cc(-c4ccccc4)nn3C)cs2)CC1 [XXXI] | 10.2 µM | – | 0.5 µM | 20.5 µM | 3.58 µM | 10.4 µM | – | – |
| COc1ccc(C(=O)N2CCC(c3nc(C(=O)NC4C=C(c5ccccc5)N=N4)cs3)CC2)c(OC)c1OC (stereo not drawn) [XX] | 19.7 µM | – | 5.31 µM | 10.3 µM | 7.8 µM | > 20 µM | – | – |
| O=C(Nc1nccs1)c1csc(C2CCN(C(=O)Cc3c[nH]c4ccccc34)CC2)n1 [X] | 18.9 µM | – | – | 18 µM | 2.53 µM | > 20 µM | – | 1.54 µM |
